The assay addresses T1, Zcchc11 enzyme (Homo sapiens, UniProt Q5TAX3).
T1 construct: made in house; host or cells: HEK293 cells (Zcchc11); E. coli Rosetta II (LIN28A)
T1 sequence (Q5TAX3 212-1420): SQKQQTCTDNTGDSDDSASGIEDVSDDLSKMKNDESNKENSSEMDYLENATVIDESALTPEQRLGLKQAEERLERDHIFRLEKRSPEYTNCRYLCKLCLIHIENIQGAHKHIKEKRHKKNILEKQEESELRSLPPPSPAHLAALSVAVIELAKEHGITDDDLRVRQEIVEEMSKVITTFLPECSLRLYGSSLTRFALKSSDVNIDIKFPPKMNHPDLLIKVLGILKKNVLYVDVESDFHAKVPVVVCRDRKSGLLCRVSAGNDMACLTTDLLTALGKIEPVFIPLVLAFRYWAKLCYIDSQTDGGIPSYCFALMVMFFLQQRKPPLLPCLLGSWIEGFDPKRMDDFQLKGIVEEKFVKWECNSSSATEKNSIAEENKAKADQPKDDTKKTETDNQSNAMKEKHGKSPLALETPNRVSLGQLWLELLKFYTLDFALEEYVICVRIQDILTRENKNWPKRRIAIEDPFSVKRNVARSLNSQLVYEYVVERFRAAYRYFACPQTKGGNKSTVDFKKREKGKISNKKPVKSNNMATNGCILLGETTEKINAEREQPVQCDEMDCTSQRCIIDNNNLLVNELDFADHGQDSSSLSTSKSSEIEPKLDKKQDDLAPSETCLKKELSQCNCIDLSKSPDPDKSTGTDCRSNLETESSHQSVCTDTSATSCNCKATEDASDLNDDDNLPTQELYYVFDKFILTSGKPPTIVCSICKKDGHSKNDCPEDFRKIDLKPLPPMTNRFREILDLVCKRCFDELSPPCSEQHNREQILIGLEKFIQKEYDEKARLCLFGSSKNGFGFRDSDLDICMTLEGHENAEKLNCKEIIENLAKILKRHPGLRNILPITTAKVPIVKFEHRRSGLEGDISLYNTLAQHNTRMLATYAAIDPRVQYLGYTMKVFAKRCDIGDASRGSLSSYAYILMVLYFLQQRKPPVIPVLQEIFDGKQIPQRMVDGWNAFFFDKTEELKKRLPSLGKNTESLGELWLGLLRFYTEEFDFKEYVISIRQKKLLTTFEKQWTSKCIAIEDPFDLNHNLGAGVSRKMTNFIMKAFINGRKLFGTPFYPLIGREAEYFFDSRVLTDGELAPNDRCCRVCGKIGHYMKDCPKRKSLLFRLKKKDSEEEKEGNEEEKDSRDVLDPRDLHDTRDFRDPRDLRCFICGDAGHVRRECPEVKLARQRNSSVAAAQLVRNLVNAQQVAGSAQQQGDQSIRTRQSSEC
The assay can be described thus: TUTase assay (Zcchc11 assay, Lin28a-dependent polyuridylation of pre-let-7). In kind it is biochemical. The conditions noted are these: Lin28a-dependent Zcchc11 (Z11) TUTase assay; read-out: Potency Lin28a-dep Z11 IC50. In outline: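 LIN28A (10 nM) in pH 7.3 HEPES/KCl/MgCl2/DTT buffer was mixed with serially diluted compound, then 0.2 nM truncated human Zcchc11 and 2 nM labeled pre-let-7 were added for 30 min at room temperature. UTP (5 uM) and quench probe (4 nM) then started the reaction. Linear early rates gave IC50 values.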

A word on the IC50: it is the point on the concentration scale where inhibition reaches its midpoint. With `CC(C)(C)OC(=O)N1CC(c2ccc(-n3cc(C(=O)O)c(=O)c4cc(Cl)c(N5CCC[C@@H]5COc5ncccc5Cl)cc43)cn2)C1` [Example 615, (R)-1-(6-(1-(tert-butoxycarbonyl)azetidin-3-yl)pyridin-3-yl)-6-chloro-7-(2-(((3-chloropyridin-2-yl)oxy)methyl)pyrrolidin-1-yl)-4-oxo-1,4-dihydroquinoline-3-carboxylic acid], the IC50 was not above 1 µM.
Consider `Cc1nc2cc(-n3cc(C(=O)O)c(=O)c4cc(Cl)c(N5CCC[C@@H]5COc5ncccc5Cl)cc43)ncc2[nH]1` [Example 616, (R)-6-chloro-7-(2-(((3-chloropyridin-2-yl)oxy)methyl)pyrrolidin-1-yl)-1-(2-methyl-3H-imidazo[4,5-c]pyridin-6-yl)-4-oxo-1,4-dihydroquinoline-3-carboxylic acid], for which the IC50 was not above 1 µM.
For `Nc1cc(-n2cc(C(=O)O)c(=O)c3cc(Cl)c(N4CCC[C@@H]4COc4ncccc4Cl)cc32)cnn1` [Example 617, (R)-1-(6-aminopyridazin-4-yl)-6-chloro-7-(2-(((3-chloropyridin-2-yl)oxy)methyl)pyrrolidin-1-yl)-4-oxo-1,4-dihydroquinoline-3-carboxylic acid] the value was not above 1 µM; for `CN(C)C1CN(c2ccc(-n3cc(C(=O)O)c(=O)c4cc(Cl)c(N5CCC[C@@H]5CS(=O)(=O)c5ncccc5Cl)cc43)cn2)C1` [Example 618, (R)-6-chloro-7-(2-(((3-chloropyridin-2-yl)sulfonyl)methyl)pyrrolidin-1-yl)-1-(6-(3-(dimethylamino)azetidin-1-yl)pyridin-3-yl)-4-oxo-1,4-dihydroquinoline-3-carboxylic acid], not above 1 µM; for `CN(C)C1CN(c2ccc(-n3cc(C(=O)O)c(=O)c4cc(Cl)c(N5C6CC6C[C@@H]5COc5ccccn5)cc43)cn2)C1` (stereo partly drawn) [Example 619, 6-chloro-1-(6-(3-(dimethylamino)azetidin-1-yl)pyridin-3-yl)-4-oxo-7-((3R)-3-((pyridin-2-yloxy)methyl)-2-azabicyclo[3.1.0]hexan-2-yl)-1,4-dihydroquinoline-3-carboxylic acid], not above 1 µM.
As for `CN(C)C1CN(c2ccc(-n3cc(C(=O)O)c(=O)c4cc(F)c(N5CCC[C@]5(C)COc5ncccc5Cl)nc43)cn2)C1` [Example 620, (R)-7-(2-(((3-chloropyridin-2-yl)oxy)methyl)-2-methylpyrrolidin-1-yl)-1-(6-(3-(dimethylamino)azetidin-1-yl)pyridin-3-yl)-6-fluoro-4-oxo-1,4-dihydro-1,8-naphthyridine-3-carboxylic acid], the figure is not above 1 µM.
For `O=C(O)c1cn(-c2ccc3c(c2)CS(=O)(=O)N3)c2cc(N3CCC[C@@H]3COc3ncccc3Cl)c(Cl)cc2c1=O` [Example 621, (R)-6-chloro-7-(2-(((3-chloropyridin-2-yl)oxy)methyl)pyrrolidin-1-yl)-1-(2,2-dioxido-1,3-dihydrobenzo[c]isothiazol-5-yl)-4-oxo-1,4-dihydroquinoline-3-carboxylic acid] the value was not above 1 µM; for `CN(C)C1CN(c2ncc(-n3cc(C(=O)O)c(=O)c4cc(Cl)c(N5CCC[C@]5(C)COc5ncccc5Cl)nc43)cn2)C1` [Example 622, (R)-6-chloro-7-(2-(((3-chloropyridin-2-yl)oxy)methyl)-2-methylpyrrolidin-1-yl)-1-(2-(3-(dimethylamino)azetidin-1-yl)pyrimidin-5-yl)-4-oxo-1,4-dihydro-1,8-naphthyridine-3-carboxylic acid], 1 to 10 µM; for `CN(C)C1CN(c2ncc(-n3cc(C(=O)O)c(=O)c4cc(Cl)c(N5CCC[C@@]5(C)COc5ncccc5Cl)nc43)cn2)C1` [Example 623, (S)-6-chloro-7-(2-(((3-chloropyridin-2-yl)oxy)methyl)-2-methylpyrrolidin-1-yl)-1-(2-(3-(dimethylamino)azetidin-1-yl)pyrimidin-5-yl)-4-oxo-1,4-dihydro-1,8-naphthyridine-3-carboxylic acid], not above 1 µM.
Regarding `CN(C)C1CN(c2ccc(-n3cc(C(=O)O)c(=O)c4cc(Cl)c(N5CCC[C@@H]5COc5nc(OC6CC6)ccc5Cl)cc43)cn2)C1` [Example 624, (R)-6-chloro-7-(2-(((3-chloro-6-cyclopropoxy-pyridin-2-yl)oxy)methyl)pyrrolidin-1-yl)-1-(6-(3-(dimethylamino)azetidin-1-yl)pyridin-3-yl)-4-oxo-1,4-dihydroquinoline-3-carboxylic acid], the concentration for half-maximal inhibition (IC50) was not above 1 µM.
For `COc1ccc(Cl)c(OC[C@H]2CC(C)CN2c2cc3c(cc2Cl)c(=O)c(C(=O)O)cn3-c2ccc(N3CC(N(C)C)C3)nc2)n1` (stereo partly drawn) [Example 625, 6-chloro-7-((2R)-2-(((3-chloro-6-methoxypyridin-2-yl)oxy)methyl)-4-methylpyrrolidin-1-yl)-1-(6-(3-(dimethylamino)azetidin-1-yl)pyridin-3-yl)-4-oxo-1,4-dihydroquinoline-3-carboxylic acid] the value was not above 1 µM.
As for `CN1CC(c2ccc(-n3cc(C(=O)O)c(=O)c4cc(Cl)c(N5CCC[C@@H]5COc5ncccc5Cl)cc43)cn2)C1` [Example 626, (R)-6-chloro-7-(2-(((3-chloropyridin-2-yl)oxy)methyl)pyrrolidin-1-yl)-1-(6-(1-methyl-azetidin-3-yl)pyridin-3-yl)-4-oxo-1,4-dihydroquinoline-3-carboxylic acid], the figure is not above 1 µM.
As for `CN(C)C1CN(c2ccc(-n3cc(C(=O)O)c(=O)c4cc(Cl)c(N5CCC[C@]5(C)COc5ncccc5Cl)cc43)cn2)C1` [Example 627, (R)-6-chloro-7-(2-(((3-chloropyridin-2-yl)oxy)methyl)-2-methylpyrrolidin-1-yl)-1-(6-(3-(dimethylamino)azetidin-1-yl)pyridin-3-yl)-4-oxo-1,4-dihydroquinoline-3-carboxylic acid], the figure is not above 1 µM; as for `CN(C)C1CN(c2ccc(-n3cc(C(=O)O)c(=O)c4cc(Cl)c(N5C6CC6C[C@@H]5COc5ncccc5Cl)cc43)cn2)C1` (stereo partly drawn) [Example 628, 6-chloro-7-((3R)-3-(((3-chloropyridin-2-yl)oxy)methyl)-2-azabicyclo[3.1.0]hexan-2-yl)-1-(6-(3-(dimethylamino)azetidin-1-yl)pyridin-3-yl)-4-oxo-1,4-dihydroquinoline-3-carboxylic acid], not above 1 µM; as for `COc1cnc(OC[C@H]2CCCN2c2cc3c(cc2Cl)c(=O)c(C(=O)O)cn3-c2ccc(N3CC(N(C)C)C3)nc2)c(Cl)c1` [Example 629, (R)-6-chloro-7-(2-(((3-chloro-5-methoxypyridin-2-yl)oxy)methyl)pyrrolidin-1-yl)-1-(6-(3-(dimethylamino)aztidin-1-yl)pyridin-3-yl)-4-oxo-1,4-dihydroquinoline-3-carboxylic acid], not above 1 µM.
`CN(C)C1CN(c2ccc(-n3cc(C(=O)O)c(=O)c4cc(F)c(N5CCC[C@@]5(C)COc5ncccc5Cl)nc43)cn2)C1` [Example 630, (S)-7-(2-(((3-chloropyridin-2-yl)oxy)methyl)-2-methylpyrrolidin-1-yl)-1-(6-(3-(dimethylamino)azetidin-1-yl)pyridin-3-yl)-6-fluoro-4-oxo-1,4-dihydro-1,8-naphthyridine-3-carboxylic acid]: the IC50 was not above 1 µM.
For `[N-]=[N+]=Nc1ccc(-n2cc(C(=O)O)c(=O)c3cc(Cl)c(N4CCC[C@@H]4COc4ncccc4Cl)cc32)cn1` [Example 631, (R)-1-(6-azidopyridin-3-yl)-6-chloro-7-(2-(((3-chloropyridin-2-yl)oxy)methyl)pyrrolidin-1-yl)-4-oxo-1,4-dihydroquinoline-3-carboxylic acid] the value was not above 1 µM; for `Cc1cc2c(=O)c(C(=O)O)cn(-c3ccc(N4CC(N(C)C)C4)nc3)c2nc1N1CCC[C@@H]1COc1ncccc1Cl` [Example 633, (R)-7-(2-(((3-chloropyridin-2-yl)oxy)methyl)pyrrolidin-1-yl)-1-(6-(3-(dimethylamino)azetidin-1-yl)pyridin-3-yl)-6-methyl-4-oxo-1,4-dihydro-1,8-naphthyridine-3-carboxylic acid], not above 1 µM.
